Results as given in ChEMBL document CHEMBL1141598, “Optimization of 1H-tetrazole-1-alkanenitriles as potent orally bioavailable growth hormone secretagogues” (Bioorg Med Chem Lett, 2008).

How the values were obtained:
Rattus norvegicus = assay: Increase in plasma GH level in acute anesthetized iv dosed Wistar rat model; type: functional
Cytochrome P450 3A4 [1] = molecular target: T1, Cytochrome P450 3A4 (Homo sapiens, UniProt P08684); assay: Inhibition of CYP3A4 using 7-benzyloxyresorufin as a substrate; type: ADME
T1 sequence (P08684 whole entry): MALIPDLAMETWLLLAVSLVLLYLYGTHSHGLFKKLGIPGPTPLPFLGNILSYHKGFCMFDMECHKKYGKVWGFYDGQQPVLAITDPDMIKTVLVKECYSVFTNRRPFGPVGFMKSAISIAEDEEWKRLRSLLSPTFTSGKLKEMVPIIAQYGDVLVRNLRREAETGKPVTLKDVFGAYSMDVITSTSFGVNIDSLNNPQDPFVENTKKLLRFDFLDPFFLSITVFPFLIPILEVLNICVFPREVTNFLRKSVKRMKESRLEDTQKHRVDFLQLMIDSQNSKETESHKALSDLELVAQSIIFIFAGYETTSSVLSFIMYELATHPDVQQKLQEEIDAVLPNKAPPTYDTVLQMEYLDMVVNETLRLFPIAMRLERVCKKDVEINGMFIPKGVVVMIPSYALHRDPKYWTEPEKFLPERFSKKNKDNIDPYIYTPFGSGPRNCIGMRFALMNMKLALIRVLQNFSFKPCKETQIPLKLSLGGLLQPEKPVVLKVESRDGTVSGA

Cytochrome P450 1A2 = molecular target: T2, Cytochrome P450 1A2 (Homo sapiens, UniProt P05177); assay: Inhibition of CYP1A2; type: ADME
T2 sequence (P05177 whole entry): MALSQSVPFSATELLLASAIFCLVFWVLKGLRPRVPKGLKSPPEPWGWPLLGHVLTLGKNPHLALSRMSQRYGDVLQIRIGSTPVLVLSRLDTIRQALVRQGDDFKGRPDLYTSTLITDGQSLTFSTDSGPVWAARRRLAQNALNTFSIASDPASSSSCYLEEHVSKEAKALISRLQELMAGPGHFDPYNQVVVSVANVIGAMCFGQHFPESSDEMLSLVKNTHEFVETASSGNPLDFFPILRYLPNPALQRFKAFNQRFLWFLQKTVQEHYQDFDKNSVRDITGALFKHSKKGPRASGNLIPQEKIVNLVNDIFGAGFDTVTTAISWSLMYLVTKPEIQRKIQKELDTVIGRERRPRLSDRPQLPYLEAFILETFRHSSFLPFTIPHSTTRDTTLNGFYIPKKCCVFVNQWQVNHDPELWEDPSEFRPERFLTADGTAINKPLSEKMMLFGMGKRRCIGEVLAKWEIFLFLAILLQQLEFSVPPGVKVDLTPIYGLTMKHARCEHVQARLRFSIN

[2] = molecular target: T3, Growth hormone secretagogue receptor type 1 (Homo sapiens, UniProt Q92847); assay: Agonist activity at human GHS receptor expressed in H4 glioma cells assessed as intracellular calcium concentration by FLIPR assay; type: functional, cell-based
T3 sequence (Q92847 whole entry): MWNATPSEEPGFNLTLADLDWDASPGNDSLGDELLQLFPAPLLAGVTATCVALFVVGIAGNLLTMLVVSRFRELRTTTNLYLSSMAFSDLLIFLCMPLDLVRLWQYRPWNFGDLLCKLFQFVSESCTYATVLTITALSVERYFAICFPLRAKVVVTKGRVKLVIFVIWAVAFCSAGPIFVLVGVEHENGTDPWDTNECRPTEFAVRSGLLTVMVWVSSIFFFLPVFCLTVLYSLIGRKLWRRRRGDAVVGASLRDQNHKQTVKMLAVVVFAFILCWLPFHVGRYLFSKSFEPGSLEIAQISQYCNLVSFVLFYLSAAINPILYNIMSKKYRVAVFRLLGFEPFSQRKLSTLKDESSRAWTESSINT

Cytochrome P450 3A4 [3] = molecular target: T1, Cytochrome P450 3A4; assay: Inhibition of CYP3A4 using 7-benzyloxy-4-trifluoromethylcoumarin as a substrate; type: ADME
Cytochrome P450 2D6 = Cytochrome P450 2D6 (Homo sapiens, UniProt P10635); assay: Inhibition of CYP2D6; type: ADME
Chain of Cytochrome P450 2D6 (P10635 whole entry): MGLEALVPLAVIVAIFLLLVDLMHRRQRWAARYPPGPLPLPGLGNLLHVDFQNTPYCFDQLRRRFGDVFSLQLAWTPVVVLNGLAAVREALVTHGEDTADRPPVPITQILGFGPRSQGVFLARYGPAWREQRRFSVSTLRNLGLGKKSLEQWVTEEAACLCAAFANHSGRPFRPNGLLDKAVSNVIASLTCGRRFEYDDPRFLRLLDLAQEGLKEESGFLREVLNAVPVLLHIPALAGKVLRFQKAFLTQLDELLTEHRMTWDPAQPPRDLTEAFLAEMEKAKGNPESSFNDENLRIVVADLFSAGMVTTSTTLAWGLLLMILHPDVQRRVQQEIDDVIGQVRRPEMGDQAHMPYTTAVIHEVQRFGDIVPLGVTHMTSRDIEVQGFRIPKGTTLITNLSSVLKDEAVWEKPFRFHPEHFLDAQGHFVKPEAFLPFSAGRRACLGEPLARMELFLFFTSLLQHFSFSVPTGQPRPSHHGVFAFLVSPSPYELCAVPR

Cytochrome P450 2C19 = Cytochrome P450 2C19 (Homo sapiens, UniProt P33261); assay: Inhibition of CYP2C19; type: ADME
Chain of Cytochrome P450 2C19 (P33261 whole entry): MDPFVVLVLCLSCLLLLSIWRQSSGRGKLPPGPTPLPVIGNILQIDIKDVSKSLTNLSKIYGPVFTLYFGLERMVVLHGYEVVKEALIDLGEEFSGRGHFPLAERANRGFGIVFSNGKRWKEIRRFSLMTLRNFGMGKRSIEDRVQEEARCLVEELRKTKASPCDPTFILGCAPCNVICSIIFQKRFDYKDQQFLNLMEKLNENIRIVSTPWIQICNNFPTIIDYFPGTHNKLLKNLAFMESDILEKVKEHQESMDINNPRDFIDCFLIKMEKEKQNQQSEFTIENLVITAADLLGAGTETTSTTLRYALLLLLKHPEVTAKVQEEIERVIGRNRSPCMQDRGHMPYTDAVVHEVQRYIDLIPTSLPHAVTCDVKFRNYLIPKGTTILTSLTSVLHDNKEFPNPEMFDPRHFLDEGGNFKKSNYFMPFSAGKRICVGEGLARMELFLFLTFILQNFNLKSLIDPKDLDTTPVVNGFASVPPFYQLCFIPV

Cytochrome P450 2C9 = Cytochrome P450 2C9 (Homo sapiens, UniProt P11712); assay: Inhibition of CYP2C9; type: ADME
Chain of Cytochrome P450 2C9 (P11712 whole entry): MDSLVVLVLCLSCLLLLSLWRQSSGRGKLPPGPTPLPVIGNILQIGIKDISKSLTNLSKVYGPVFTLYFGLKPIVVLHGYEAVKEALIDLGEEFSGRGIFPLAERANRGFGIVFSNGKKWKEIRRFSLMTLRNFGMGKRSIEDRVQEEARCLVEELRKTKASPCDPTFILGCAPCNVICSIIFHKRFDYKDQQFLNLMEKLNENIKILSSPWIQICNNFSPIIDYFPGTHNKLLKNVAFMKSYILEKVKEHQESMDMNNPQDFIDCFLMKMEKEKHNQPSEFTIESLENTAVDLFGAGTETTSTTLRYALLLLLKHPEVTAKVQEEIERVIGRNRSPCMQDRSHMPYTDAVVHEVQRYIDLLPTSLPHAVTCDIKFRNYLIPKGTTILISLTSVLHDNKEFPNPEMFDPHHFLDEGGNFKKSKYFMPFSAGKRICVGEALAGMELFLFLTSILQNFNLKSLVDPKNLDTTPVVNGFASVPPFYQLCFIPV

[4] = molecular target: T3, Growth hormone secretagogue receptor type 1; assay: Agonist activity at human GHS receptor expressed in H4 glioma cells; type: cell-based
[5] = Oral bioavailability in rat; type: ADME, organism-based; conditions: in vivo
[6] = Oral bioavailability in dog; type: ADME, organism-based, Canis lupus familiaris; conditions: in vivo

SMILES | EC50 [2] | Ki [4] | further results
CC(C)(N)C(=O)N[C@H](COCc1ccccc1)c1nnnn1CCC#N | – | – | ED250 (Rattus norvegicus): 4.8 µmol/kg
CC(C)(N)C(=O)N[C@H](COCc1ccccc1)c1nnnn1[C@@H](CC#N)COc1ccccn1 | 19 nM | 503 nM | –
CC(C)(N)C(=O)N[C@H](COCc1ccccc1)c1nnn(CCC(C#N)c2ccccc2)n1 (mixture of isomers) | 302 nM | > 5000 nM | –
CC(C)(N)C(=O)N[C@H](COCc1ccccc1)c1nnnn1CCC(C#N)c1ccccc1 (mixture of isomers) | 27 nM | 611 nM | –
CC(C)(N)C(=O)N[C@H](COCc1ccccc1)c1nnnn1CC(C#N)Cc1ccccc1 (mixture of isomers) | 22 nM | 298 nM | –
CC(C)(N)C(=O)N[C@H](COCc1ccccc1)c1nnn(CC(C#N)Cc2ccccc2)n1 (mixture of isomers) | 2470 nM | > 5000 nM | –
CC(C)(N)C(=O)N[C@H](COCc1ccccc1)c1nnn(C(/C=C/c2ccccc2)CC#N)n1 (single isomer, unassigned; diastereomer 1) | 19 nM | 453 nM | –
CC(C)(N)C(=O)N[C@H](COCc1ccccc1)c1nnn(C(CC#N)CCc2ccccc2)n1 (single isomer, unassigned; diastereomer 1) | 150 nM | 2560 nM | –
CC(C)(N)C(=O)N[C@H](COCc1ccccc1)c1nnnn1C(CC#N)CCc1ccccc1 (single isomer, unassigned; diastereomer 1) | 0.8 nM | 63 nM | ED250 (Rattus norvegicus): 1.7 µmol/kg
CC(C)(N)C(=O)N[C@H](COCc1ccccc1)c1nnnn1C(/C=C/c1ccccc1)CC#N (single isomer, unassigned; diastereomer 1) | 0.5 nM | 12 nM | ED250 (Rattus norvegicus): >2 µmol/kg
CC(C)(N)C(=O)N[C@H](COCc1ccccc1)c1nnn(C(/C=C/c2ccccc2)CC#N)n1 (single isomer, unassigned; diastereomer 2) | 202 nM | 2510 nM | –
CC(C)(N)C(=O)N[C@H](COCc1ccccc1)c1nnn(C(CC#N)CCc2ccccc2)n1 (single isomer, unassigned; diastereomer 2) | 244 nM | 3940 nM | –
CC(C)(N)C(=O)N[C@H](COCc1ccccc1)c1nnnn1C(CC#N)CCc1ccccc1 (single isomer, unassigned; diastereomer 2) | 139 nM | 1380 nM | –
CC(C)(N)C(=O)N[C@H](COCc1ccccc1)c1nnnn1C(/C=C/c1ccccc1)CC#N (single isomer, unassigned; diastereomer 2) | 62 nM | 737 nM | –

Second part, led by results:

EC50 [2] | Ki [4] | SMILES | further results
0.3 nM | 5.7 nM | CC(C)(N)C(=O)N[C@H](COCc1ccccc1)c1nnnn1[C@H](CC#N)COc1ccccc1O | IC50 (Cytochrome P450 3A4 [1]): 5500 nM; IC50 (Cytochrome P450 1A2): > 66000 nM; IC50 (Cytochrome P450 3A4 [3]): 9800 nM; IC50 (Cytochrome P450 2D6): 5100 nM; IC50 (Cytochrome P450 2C19): 42000 nM; IC50 (Cytochrome P450 2C9): > 66000 nM; ED250 (Rattus norvegicus): <0.15 µmol/kg
0.4 nM | 40 nM | CC(C)(N)C(=O)N[C@H](COCc1ccccc1)c1nnnn1[C@H](CC#N)COc1ccccn1 | IC50 (Cytochrome P450 3A4 [1]): 11000 nM; IC50 (Cytochrome P450 1A2): > 100000 nM; IC50 (Cytochrome P450 3A4 [3]): 59000 nM; IC50 (Cytochrome P450 2D6): > 100000 nM; bioavailability [5]: 24%; IC50 (Cytochrome P450 2C19): 33000 nM; IC50 (Cytochrome P450 2C9): > 100000 nM; bioavailability [6]: 55%; ED250 (Rattus norvegicus): 0.33 µmol/kg
19 nM | 197 nM | CC(C)(N)C(=O)N[C@H](COCc1ccccc1)c1nnnn1[C@@H](CC#N)COc1ccccc1 | –
0.4 nM | 7.5 nM | CC(C)(N)C(=O)N[C@H](COCc1ccccc1)c1nnnn1[C@H](CC#N)COc1ccccc1 | ED250 (Rattus norvegicus): 0.87 µmol/kg
23 nM | 240 nM | CC(C)(N)C(=O)N[C@H](COCc1ccccc1)c1nnnn1[C@@H](CC#N)COc1ccccc1O | –
0.6 nM | 18 nM | CC(C)(N)C(=O)N[C@H](COCc1ccccc1)c1nnnn1C(CC#N)COc1ccccc1F (single isomer, unassigned; diastereomer 1) | –
64 nM | 696 nM | CC(C)(N)C(=O)N[C@H](COCc1ccccc1)c1nnnn1C(CC#N)COc1ccccc1F (single isomer, unassigned; diastereomer 2) | –
